Patent publication US9023789B2, “Amylin analogs and pharmaceutical compositions thereof” (Novo Nordisk A/S, priority 2012, dated 2015)
Numbered stars: 1 amine (or outer) side, 2 acyl side, 3 side chain; on linkers, the order of the positions; unused ones are H or OH. Bridge positions count the residues as written; N and C are the ends. Peptide text beside a SMILES is read from it. * marks the point of attachment. C20 diacid = O=C(O)CCCCCCCCCCCCCCCCCCC(=O)*; γGlu = O=C(O)[C@H](CCC(=O)[*:2])N[*:1]

Columns and labels:
rat calcitonin receptor = target: T1, rat calcitonin receptor (Rattus norvegicus, UniProt P32214); assay: ASSAY (VIII) binding to the rat calcitonin receptor; conditions: Table 7, read-out: rCTR bind IC50
T1 construct: expressed in transfected cells; host or cells: BHK tk'ts 13 (transient, FuGENE 6), membranes
T1 sequence (P32214 25-479 isoform P32214-2 limits assumed): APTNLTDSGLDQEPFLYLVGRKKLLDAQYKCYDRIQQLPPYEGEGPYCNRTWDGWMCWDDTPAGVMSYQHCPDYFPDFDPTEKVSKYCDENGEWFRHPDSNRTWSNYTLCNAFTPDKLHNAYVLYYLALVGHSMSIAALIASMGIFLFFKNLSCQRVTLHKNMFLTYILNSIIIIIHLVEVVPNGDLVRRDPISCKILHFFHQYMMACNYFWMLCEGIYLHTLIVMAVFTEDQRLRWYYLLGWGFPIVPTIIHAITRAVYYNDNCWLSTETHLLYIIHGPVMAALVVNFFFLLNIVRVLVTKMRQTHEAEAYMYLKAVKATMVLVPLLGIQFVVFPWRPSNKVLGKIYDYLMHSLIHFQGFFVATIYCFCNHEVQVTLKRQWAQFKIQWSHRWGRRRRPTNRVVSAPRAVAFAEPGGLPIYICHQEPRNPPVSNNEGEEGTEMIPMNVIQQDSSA
Outline: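 Rat calcitonin receptor is expressed transiently in BHK tk′ts 13 cells cultured in DMEM with 10% FBS. Roughly two days (approximately 48 hours) post-transfection, cells are harvested for membrane preparation.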

[1] = target: T2, human amylin 3(a) receptor (human calcitonin receptor + RAMP-3) in BHK570 cells (Homo sapiens, UniProt O60896+P30988); assay: ASSAY (II)a functional assay, human amylin receptor (CRE luciferase); type: cell-based; conditions: for EC50: human amylin receptor functional potency, assay (II), read-out: hAmylin-R funct. EC50
T2 construct: expressed in transfected cells
Outline: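 Cells were seeded and cultured overnight, then incubated with standard or sample for 3 h at 37° C in serum-containing medium at pH 7.4. The medium was then swapped for PBS, LucLite was added for 30 min at room temperature, and luminescence was recorded. Cells were BHK with CRE-luc and calcitonin receptor, ± RAMP-3.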

[2] = target: T3, rat amylin receptor (rat calcitonin receptor + rat RAMP 3) (Rattus norvegicus, UniProt P32214+Q9JJ73); assay: ASSAY (VI) binding to the rat amylin receptor; conditions: for IC50: binding to rat amylin receptor, read-out: rAmylin-R bind IC50
T3 construct: expressed in transfected cells; host or cells: BHK tk'ts 13 (transient, FuGENE 6), membranes
T3 sequence (P32214 25-479 isoform P32214-2 limits assumed): T1 sequence (P32214 25-479 isoform P32214-2 limits assumed)
T3 sequence (Q9JJ73 23-147 partner): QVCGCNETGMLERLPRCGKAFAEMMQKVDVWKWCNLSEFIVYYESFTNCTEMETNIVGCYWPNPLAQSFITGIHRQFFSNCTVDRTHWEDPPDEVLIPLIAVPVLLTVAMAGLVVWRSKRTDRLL
Outline: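 Binding to the rat amylin receptor was determined with membrane preparations. The receptor was expressed by transiently transfecting BHK tk′ts 13 cells with rat calcitonin receptor, using FuGENE® 6 (Roche) according to the manufacturer's recommendations. Roughly 48 hours later the cells were harvested and their membranes isolated.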

[3] = target: T4, human calcitonin (a) receptor in BHK570 cells (Homo sapiens, UniProt P30988); assay: ASSAY (II)a functional assay, human calcitonin receptor (CRE luciferase); type: cell-based; conditions: read-out: hCTR funct. EC50
T4 construct: expressed in transfected cells
T4 sequence (P30988 25-474): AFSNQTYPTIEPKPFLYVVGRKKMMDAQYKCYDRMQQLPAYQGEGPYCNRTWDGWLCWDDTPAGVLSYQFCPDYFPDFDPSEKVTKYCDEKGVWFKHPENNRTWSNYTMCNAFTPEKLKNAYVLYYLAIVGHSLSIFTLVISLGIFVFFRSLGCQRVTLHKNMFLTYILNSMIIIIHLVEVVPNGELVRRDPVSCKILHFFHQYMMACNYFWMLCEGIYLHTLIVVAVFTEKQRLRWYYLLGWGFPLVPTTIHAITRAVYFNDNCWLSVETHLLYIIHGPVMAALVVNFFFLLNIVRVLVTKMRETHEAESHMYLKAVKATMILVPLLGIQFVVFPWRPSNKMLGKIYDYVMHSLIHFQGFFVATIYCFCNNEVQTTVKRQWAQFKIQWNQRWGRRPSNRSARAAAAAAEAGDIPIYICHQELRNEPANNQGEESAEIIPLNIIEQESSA
From the text: 1. Luciferase Assay Outline
Activation of calcitonin and amylin (coexpression of calcitonin receptor and receptor activity modifying proteins (RAMP)) receptors lead to increased intracellular concentrations of cAMP. Consequently, transcription is activated by promoters containing multiple copies of the cAMP response element (CRE). It is thus possible to measure amylin activity by the use of a CRE luciferase reporter gene introduced into BHK cells also expressing calcitonin or amylin receptors.
2. Construction of Calcitonin (a)- and Amylin 3(a)-Receptor/CRE-Luc Cell Line.
The cell line was further transfected with RAMP-3, using standard methods. This turns the calcitonin receptor into an amylin 3(a) receptor. Methotrexate, Neomycin, and Hygromycin are selection markers for luciferase, the calcitonin receptor, and RAMP-3, respectively.
To perform activity assays, BHK calcitonin (a) receptor- or amylin 3(a)-receptor/CRE-luc cells were seeded in white 96 well culture plates at a density of about 20.000 cells/well. […] After incubation overnight at 37° C. and 5% CO2, the growth medium was replaced by 50 μl/well assay medium (DMEM (without phenol red), Glutamax™, 10% FBS, and 10 mM Hepes, pH 7.4). Further, 50 μl/well of standard or sample in assay buffer were added. After 3 hours incubation at 37° C. and 5% CO2, the assay medium with standard or sample were removed and replaced by 100 μl/well PBS. Further, 100 μl/well LucLite™ was added. The plates were sealed and incubated at room temperature for 30 minutes. Finally, luminescence was measured on a TopCounter (Packard) in SPC (single photon counting) mode.

[4] = target: T5, human amylin receptor (membranes from Amylin 3(a)/CRE-luc cells) (Homo sapiens, UniProt O60896+P30988); assay: ASSAY (V) binding to the human amylin receptor (SPA, 125I-rat amylin); conditions: for IC50: Table 4, read-out: hAmylin-R bind IC50;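 for all read-outs here: competition binding of cell membranes (35 ng/µL) mixed with SPA beads in 384-well plates at 40 µL total volume, read by scintillation counting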
T5 construct: expressed in transfected cells
T5 sequence (P30988 25-474): T4 sequence (P30988 25-474)
T5 sequence (O60896 24-148 partner): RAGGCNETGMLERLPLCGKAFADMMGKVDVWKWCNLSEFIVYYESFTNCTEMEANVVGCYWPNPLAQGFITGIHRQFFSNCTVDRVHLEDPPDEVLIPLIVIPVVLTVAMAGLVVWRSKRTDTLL

[5] = target: T6, human calcitonin receptor (Homo sapiens, UniProt P30988); assay: ASSAY (VII) binding to the human calcitonin receptor (SPA, 125I-Calcitonin); conditions: read-out: hCTR bind IC50;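 note: cell membranes (35 ng/µL) combined with SPA beads in 40 µL of pH 7.4 Hepes buffer, 384-well format, signal counted on a TopCounter instrument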
T6 construct: expressed in transfected cells
T6 sequence (P30988 25-474): T4 sequence (P30988 25-474)

[6] = hCTR funct. EC50 over hAmylin-R funct. EC50
[7] = human functional selectivity: hCTR funct. EC50 / hAmylin-R funct. EC50
[8] = Table 7, rat binding selectivity, rCTR IC50 / rAmylin-R IC50
[9] = Table 7a (preferred compounds), rat binding selectivity, rCTR IC50 / rAmylin-R IC50
[10] = ratio of rCTR bind IC50 to rAmylin-R bind IC50
[11] = Table 5, selectivity, hCTR bind IC50 / hAmylin-R bind IC50
[12] = Table 5a, selectivity, hCTR bind IC50 / hAmylin-R bind IC50
[13] = Table 5b, selectivity, hCTR bind IC50 / hAmylin-R bind IC50
[14] = Table 7, human binding selectivity, included for comparison
[15] = Table 7a (preferred compounds), human binding selectivity, included for comparison
[16] = ratio of human calcitonin receptor binding IC50 to human amylin receptor binding IC50

Row | IC50 (rat calcitonin receptor) [nM] | Ratio hCT/hAmylin funct. [1, 6] | EC50 [1] [nM] | Ratio hCT/hAmylin funct. [1, 7] | IC50 ([2]; Table 7) [nM] | Ratio rCT/rAmylin binding [2, 8] | Ratio rCT/rAmylin binding [2, 9] | Ratio rCT/rAmylin binding [2, 10] | EC50 [3] [nM] | IC50 [4] [nM] | Ratio hCT/hAmylin binding [4, 11] | Ratio hCT/hAmylin binding [4, 12] | Ratio hCT/hAmylin binding [4, 13] | Ratio hCT/hAmylin binding [4, 14] | Ratio hCT/hAmylin binding [4, 15] | Ratio hCT/hAmylin binding [4, 16] | IC50 [5] [nM] | Ratio hCT/hAmylin binding ([4]; Table 5c, selectivity, hCTR bind IC50 / hAmylin-R bind IC50) | Structure (SMILES)
1 | 47.2 | 4.5 | 0.255 | 4.5 | 1.12 | 42.0 | 42.0 | 42.0 | 1.16 | 0.674 | 16.5 | 16.5 | 16.5 | 16.5 | 16.5 | 16.5 | 11.1 | – | CC(C)C[C@H](NC(=O)[C@H](CCCNC(=N)N)NC(=O)[C@H](CCC(N)=O)NC(=O)[C@@H](NC(=O)[C@H](C)NC(=O)[C@@H]1CSSC[C@H](NC(=O)[C@H](CCCCN)NC(=O)CC[C@H](NC(=O)CCCCCCCCCCCCCCCCCCC(=O)O)C(=O)O)C(=O)N[C@@H](CC(N)=O)C(=O)N[C@@H]([C@@H](C)O)C(=O)N[C@@H](C)C(=O)N[C@@H]([C@@H](C)O)C(=O)N1)[C@@H](C)O)C(=O)N[C@@H](C)C(=O)N[C@@H](CCC(=O)O)C(=O)N[C@@H](Cc1ccccc1)C(=O)N[C@@H](CC(C)C)C(=O)N[C@@H](CCCNC(=N)N)C(=O)N[C@@H](Cc1c[nH]cn1)C(=O)N[C@@H](CO)C(=O)N[C@@H](CO)C(=O)N1CCC[C@H]1C(=O)N[C@@H](CC(N)=O)C(=O)N[C@@H](Cc1ccccc1)C(=O)NCC(=O)N[C@@H](C)C(=O)N1CCC[C@H]1C(=O)N[C@@H](CC(C)C)C(=O)N[C@@H](CO)C(=O)N[C@@H](CO)C(=O)N[C@H](C(=O)N[C@@H](CC(N)=O)C(=O)N[C@H](C(=O)NCC(=O)N[C@@H](CO)C(=O)N[C@@H](CC(N)=O)C(=O)N[C@H](C(=O)N[C@@H](Cc1ccc(O)cc1)C(N)=O)[C@@H](C)O)C(C)C)[C@@H](C)O [Example 7] ({C20 diacid-γGlu}-KCNTATCATQRLAEFLRHSSPNFGAPLSSTNVGSNTY-NH2; disulfide 2-7)
2 | 51.6 | 5.7 | 0.128 | 5.7 | 2.37 | 21.7 | 21.7 | 21.7 | 0.729 | 0.996 | 20.0 | 20.0 | 20.0 | 20.0 | 20.0 | 20.0 | 19.9 | 20.0 | CC[C@H](C)[C@H](NC(=O)[C@@H]1CCCN1C(=O)CNC(=O)[C@H](Cc1ccccc1)NC(=O)[C@H](CC(N)=O)NC(=O)[C@@H]1CCCN1C(=O)[C@H](CO)NC(=O)[C@H](CO)NC(=O)[C@H](Cc1c[nH]cn1)NC(=O)[C@H](CCCNC(=N)N)NC(=O)[C@H](CC(C)C)NC(=O)[C@H](Cc1ccccc1)NC(=O)[C@H](CCC(=O)O)NC(=O)[C@H](C)NC(=O)[C@H](CC(C)C)NC(=O)[C@H](CCCNC(=N)N)NC(=O)[C@H](CCC(N)=O)NC(=O)[C@@H](NC(=O)[C@H](C)NC(=O)[C@@H]1CSSC[C@H](NC(=O)[C@H](CCCCN)NC(=O)CC[C@H](NC(=O)CCCCCCCCCCCCCCCCCCC(=O)O)C(=O)O)C(=O)N[C@@H](CC(N)=O)C(=O)N[C@@H]([C@@H](C)O)C(=O)N[C@@H](C)C(=O)N[C@@H]([C@@H](C)O)C(=O)N1)[C@@H](C)O)C(=O)N[C@@H](CC(C)C)C(=O)N1CCC[C@H]1C(=O)N1CCC[C@H]1C(=O)N[C@H](C(=O)N[C@@H](CC(N)=O)C(=O)N[C@H](C(=O)NCC(=O)N[C@@H](CO)C(=O)N[C@@H](CC(N)=O)C(=O)N[C@H](C(=O)N[C@@H](Cc1ccc(O)cc1)C(N)=O)[C@@H](C)O)C(C)C)[C@@H](C)O [Example 6] ({C20 diacid-γGlu}-KCNTATCATQRLAEFLRHSSPNFGPILPPTNVGSNTY-NH2; disulfide 2-7)
